Our source for the MBC and MIC values is patent US20140051650A1, “VAGINAL COMPOSITIONS BASED ON ALKYL POLYGLUCOSIDES” (EFFIK S.A., priority 2011, published 2014).

What all share (type): cell-based
Common to all, as to conditions: substance alone

The subject of test [1] is Gardnerella vaginalis ATCC 14018. Nature of the test: MBC against Gardnerella vaginalis. On the procedure:
(§1) The Gardnerella vaginalis ATCC 14018 strain, the Neisseria gonorrhoeae ATCC 43069 strain and the Candida albicans ATCC 10231 strain were also used for the experiment. [table] The other assayed microbial strains were cultured in the liquid media and in the incubation conditions specified in table A, following the operating procedure described above. Immediately after determining the value of the MIC for each substance, a volume equivalent to 50 μl was taken from each well and streaked on the surface of plates containing the solid medium. The plates were subsequently incubated at the conditions indicated for each microbial strain. After incubation at 37° C. for 24 hours, the number of colonies grown on the medium surface was counted thus determining the number of bacteria that survived after 24 hours of contact with the substance at the concentration present in the well. The MBC value defined as the lowest concentration of each substance capable of reducing the bacterial load by 99.9% in the previously defined assay conditions was determined through comparison between the number of bacteria that survived in each well and that of the bacterial inoculum deposited initially.

The subject of test [2] is Neisseria gonorrhoeae ATCC 43069. Put plainly: MBC against Neisseria gonorrhoeae. On the procedure: as §1
The subject of test [3] is Gardnerella vaginalis ATCC 14018. Put plainly: MIC against Gardnerella vaginalis. On the procedure: (§2) The Gardnerella vaginalis ATCC 14018 strain, the Neisseria gonorrhoeae ATCC 43069 strain and the Candida albicans ATCC 10231 strain were also used for the experiment.
(§3) The other assayed microbial strains were cultured in the liquid media and in the incubation conditions specified in table A, following the operating procedure described above.
(§4) The assay was carried out in 96-well microtitre plates. 50 μl of substance solution at the “mother” concentration alongside 50 μl of liquid medium at double concentration were deposited in the first well of each of the 8 rows while 50 μl of liquid medium at normal concentration were deposited in the remaining 11 wells. Starting from the first well of each row, 50 μl volumes were transferred from each well to the subsequent one 10 times, thus obtaining a series of 11 dilutions after doubling. The 12th well of each row was kept substance-free as a function of positive control of the bacterial growth.
Subsequently, 50 μl of diluted bacterial inoculum as specified previously were deposited in all wells of the plate, except for the 11th of each row. Only the liquid medium at single concentration but bacteria-free, was deposited in the 11th well, with the aim of providing negative control for each row. The described scheme was used for the assay with each of the assayed microbial strains. […]

The test system of a further test is Streptococcus agalactiae. Put plainly: Minimum Bactericidal Concentration (MBC) in liquid medium against Streptococcus agalactiae. On the procedure:
Three Streptococcus agalactiae strains isolated from vaginal-rectal buffers during the prenatal check-ups were used for the assay. The strains were named “strain 2”, “strain 10” and “strain 11”. Isolation was carried out on a blood agar medium and identification was obtained through biochemical tests of the API 20 Strep (Bio-Mérieux) system and through the identification of the Lancefield group.
The experiments were also carried out on a Streptococcus agalactiae ATCC 12386 strain.
“Brain Heart Infusion broth” (BHIb, Becton Dickinson) medium was used for the Streptococcus agalactiae culture, “Mueller-Hinton broth” (M-Hb) medium after adding 2% “laked” horse blood and the “Mueller-Hinton agar” (M-Ha) medium with addition of defibrinated horse blood at 5% (Oxoid) were used for the antimicrobial activity assays.
The Streptococcus agalactiae strains were cultured in BHIb broth for 24 hours at 37° C. Immediately before the assay, the bacterial suspensions were diluted up to obtaining turbidity equivalent to 0.5 McFarland standard. 50 μl of a further 1:100 dilution in broth+blood at 2% were distributed in the wells of the microtitre plates. The presumed titre of the inoculum carried out through this procedure is of about 5×10^4 ufc (units forming colony)/well.
The bacterial cultures were also diluted serially according to a value 10 (up to a dilution value equivalent to 10^−7) and an aliquot of 0.1 ml of each dilution was double streaked on M-Ha +blood 5% for determining the actual titre to be used, subsequently, to determine the MBC (Minimum Bactericidal Concentration).
The assay was carried out in 96-well microtitre plates. 50 μl of M-Hb at normal concentration were deposited in the first well of each of the 5 rows. Starting from the first well of each row, […] volumes were transferred from each well to the subsequent one 10 times, thus obtaining a series of dilutions after doubling. The 12th well of each row was kept substance-free as a positive control of the bacterial growth.
Subsequently, 50 μl of bacterial inoculum of M-Hb+double concentration blood (4%) were deposited in all wells of the plate, except for the 11th of each row. Only M-Hb+double concentration blood but bacteria-free, were deposited in the 11th well, with the aim of providing negative control for each row. The described scheme was used for the assay of each of the three Streptococcus agalactiae strains.
as §1, with “Immediately” for “The Gardnerella vaginalis ATCC 14018 strain, the Neisseria gonorrhoeae ATCC 43069 strain and the Candida albicans ATCC 10231 strain were also used for the experiment. [table] The other assayed microbial strains were cultured in the liquid media and in the incubation conditions specified in table A, following the operating procedure described above. Immediately”

The subject of test [4] is Candida albicans ATCC 10231. Nature of the test: MIC against Candida albicans. The procedure: as §2, §3, §4
Subsequently, 50 μl of diluted bacterial inoculum as specified previously were deposited in all wells of the plate, except for the 11th of each row. Only the liquid medium at single concentration but bacteria-free, was deposited in the 11th well, with the aim of providing negative control for each row. The described scheme was used for the assay with each of the assayed microbial strains.
After incubation at the conditions indicated regarding each micro-organism, the microtitre plates were examined to verify, in each well, the presence or absence of bacterial growth. The minimum inhibitory concentration is defined as the lowest concentration of the substance still capable of inhibiting bacterial growth i.e. preventing the liquid from becoming turbid within the well.

The test system of test [5] is Lactobacillus crispatus NCIMB 4505. Nature of the test: MBC against Lactobacillus crispatus. The procedure:
(§5) The vaginal lactobacillus strains used are the NCIMB 4505 strain of Lactobacillus crispatus, the NCIMB 13279 strain of Lactobacillus jensenii and NCIMB 702820 strain of Lactobacillus gasseri. [table] The other assayed microbial strains were cultured in the liquid media and in the incubation conditions specified in table A, following the operating procedure described above. Immediately after determining the value of the MIC for each substance, a volume equivalent to 50 μl was taken from each well and streaked on the surface of plates containing the solid medium. The plates were subsequently incubated at the conditions indicated for each microbial strain. After incubation at 37° C. for 24 hours, the number of colonies grown on the medium surface was counted thus determining the number of bacteria that survived after 24 hours of contact with the substance at the concentration present in the well. The MBC value defined as the lowest concentration of each substance capable of reducing the bacterial load by 99.9% in the previously defined assay conditions was determined through comparison between the number of bacteria that survived in each well and that of the bacterial inoculum deposited initially.

The subject of test [6] is Lactobacillus gasseri NCIMB 702820. Put plainly: MBC against Lactobacillus gasseri. The procedure: as §5

“lauryl glucoside/C12-C16 alkyl polyglucoside [Substance A2]”: the MBC in test [1] is 0.0048%; in test [2], “≦0.0012%”; with Streptococcus agalactiae (ATCC 12386 in M-Hb blood 2%) it was 0.0097; in the test on Streptococcus agalactiae (Strain 2 in M-Hb blood 2%) it was 0.0097; in the test on Streptococcus agalactiae (Strain 10 in M-Hb blood 2%) it was 0.019; in the test on Streptococcus agalactiae (Strain 11 in M-Hb blood 2%), 0.0097. Besides, the MBC in test [5] and in test [6] was 0.077% in each case. In addition, the MIC is reported as 0.0048% in test [3] and 0.077% in test [4].
Consider “caprylyl/capryl glucoside/C8-C10 alkyl polyglucoside [Substance A1]”, for which the MBC in the test with Streptococcus agalactiae (ATCC 12386 in M-Hb blood 2%) turned out to be 0.097; in the test with Streptococcus agalactiae (Strain 2 in M-Hb blood 2%), 0.097; with Streptococcus agalactiae (Strain 10 in M-Hb blood 2%) it was 0.194; in the test on Streptococcus agalactiae (Strain 11 in M-Hb blood 2%), 0.097; in test [5] it was 0.193%; in test [6] it was 0.193%.
